From ChEMBL document CHEMBL1201862, “PubChem BioAssay data set” (2004)
Activity calls are given as the source filed them.

Columns and labels:
[1] = target: Heat shock protein HSP 90-alpha (Homo sapiens, UniProt P07900); assay type: functional, organism-based
INS1 = assay: beta cell apoptosis inhibitors, cytokine rescue, dose response, luminescence, retest (AID 449756); assay type: functional, cell-based; conditions: Rattus norvegicus;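 also: cell death triggered by IL-1 beta plus TNF-alpha plus IFN-gamma mixture; protective hits raise ATP signal compared with cytokine alone wells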
[2] = Fluorescence-based cell-based high throughput dose response assay for inhibitors of the interaction of nucleotide-binding oligomerization domain containing 2 (NOD2) and the receptor-interacting serine-threonine kinase 2 (RIPK2).; assay type: functional; conditions: Homo sapiens
[3] = inhibitors of PGC1a acetylation in cells, dose response, cell-based, cherry-picked samples (AID 720514); assay type: functional;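 also: potency may reflect raised or lowered acetylation signal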
[4] = A549 cell cytotoxicity, dose response, cytotoxicity control, plate reader, cherry-pick, antagonist series (AID 743412); assay type: functional, cell-based
[5] = HepG2 cell cytotoxicity, dose response, cytotoxicity control, plate reader, cherry-pick, antagonist series (AID 743416); assay type: functional, cell-based
[6] = LGR2 antagonists, dose response, cell-based, HEK293, CRE-luciferase reporter, cherry pick, set 2 (AID 743343); assay type: functional;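 also: transfected cells were stimulated with diluted bursicon conditioned medium after compound addition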
[7] = MC4R antagonists, dose response, counter-screen for LGR2 antagonist project, cell-based, plate reader, cherry pick (AID 743444); assay type: functional;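 also: transfected HEK 293 cells stimulated with alpha-MSH peptide; potency of inhibitors of the alpha-MSH evoked signal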
[8] = HEK293 cell cytotoxicity, dose response, cytotoxicity control, plate reader, cherry-picked samples (AID 743446); assay type: functional, cell-based
[9] = target: DNA dC->dU-editing enzyme APOBEC-3A (Homo sapiens, UniProt P31941); assay: Dose Response confirmation of small molecule APOBEC3A DNA Deaminase Inhibitors via a fluorescence-based single-stranded DNA deaminase assay. [Related pubchem assays (depositor defined):AID493011, AID493024]; assay type: functional
[10] = target: DNA dC->dU-editing enzyme APOBEC-3G (Homo sapiens, UniProt Q9HC16); assay type: functional;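 also: Dose-response counterscreen measuring inhibition of APOBEC3G DNA deaminase activity, run while confirming APOBEC3A inhibitors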
[11] = target: T1, Carboxy-terminal domain RNA polymerase II polypeptide A small phosphatase 1 (Homo sapiens, UniProt Q9GZU7); assay: inhibitors of CTDSP1, concentration-response testing, biochemical assay, absorbance-based, actives from ultra-high-throughput screening (AID 540297); assay type: functional
T1 sequence (Q9GZU7 whole entry): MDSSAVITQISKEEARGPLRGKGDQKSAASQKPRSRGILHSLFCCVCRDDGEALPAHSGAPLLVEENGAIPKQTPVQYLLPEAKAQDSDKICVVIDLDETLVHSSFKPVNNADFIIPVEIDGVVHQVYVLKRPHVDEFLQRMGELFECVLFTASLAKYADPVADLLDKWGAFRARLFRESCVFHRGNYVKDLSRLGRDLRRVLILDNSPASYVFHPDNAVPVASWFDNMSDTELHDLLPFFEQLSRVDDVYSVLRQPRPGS

[12] = target: Peroxisome proliferator-activated receptor gamma/Nuclear receptor corepressor 2 (Homo sapiens, UniProt P37231+Q9Y618); assay: Counterscreen for NR2E3 inverse agonists: TR-FRET-based biochemical high throughput dose response assay to identify inverse agonists of the interaction between peroxisome proliferator-activated receptor gamma (PPARg) and nuclear receptor co-repressor 2 (NCOR2).; assay type: functional
[13] = target: Photoreceptor-specific nuclear receptor (Homo sapiens, UniProt Q9Y5X4); assay: NR2E3 inverse agonists, dose response, biochemical, TR-FRET (AID 463256); assay type: functional
[14] = target: FAD-linked sulfhydryl oxidase ALR (Homo sapiens, UniProt P55789); assay: inhibitors of human ALR sulfhydryl oxidase, dose response, biochemical, H2O2 detection, luminescence, cherry-pick (AID 493248)
[15] = target: T2, Oxysterols receptor LXR-beta (Homo sapiens, UniProt P55055); assay type: functional, cell-based;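 also: Cell-based luminescence dose-response assay of agonist activity at LXR, run as a confirmatory counterscreen to a daf-12 agonist screen; HEK293 cells with Gal4-LXR fusion and GAL4-driven luciferase reporter; agonist potency from rising luciferase signal of a Gal4-LXR reporter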
T2 sequence (P55055 whole entry): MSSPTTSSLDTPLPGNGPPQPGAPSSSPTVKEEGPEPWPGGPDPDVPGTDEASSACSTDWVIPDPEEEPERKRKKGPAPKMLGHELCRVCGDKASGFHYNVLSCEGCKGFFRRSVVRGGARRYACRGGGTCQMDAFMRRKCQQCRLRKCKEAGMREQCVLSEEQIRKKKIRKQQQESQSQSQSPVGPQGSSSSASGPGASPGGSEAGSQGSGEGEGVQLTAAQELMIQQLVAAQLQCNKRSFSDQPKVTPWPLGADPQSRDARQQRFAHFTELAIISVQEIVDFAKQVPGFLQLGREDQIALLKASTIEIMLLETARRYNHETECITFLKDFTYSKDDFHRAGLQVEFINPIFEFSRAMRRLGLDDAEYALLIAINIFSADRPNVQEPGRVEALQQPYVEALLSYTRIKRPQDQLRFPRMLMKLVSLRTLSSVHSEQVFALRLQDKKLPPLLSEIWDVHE

[16] = target: T3, Epstein-Barr nuclear antigen 1 (Epstein-Barr virus (strain B95-8) (HHV-4) (Human herpesvirus 4), UniProt P03211); assay: EBNA-1 inhibitors, dose response, biochemical, fluorescence polarization, 1536-well (AID 2381); parameters: species or system human gammaherpesvirus 4;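 also: fluorescence polarization of a Cy5 DNA probe bound by EBNA-1 protein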
T3 sequence (P03211 whole entry): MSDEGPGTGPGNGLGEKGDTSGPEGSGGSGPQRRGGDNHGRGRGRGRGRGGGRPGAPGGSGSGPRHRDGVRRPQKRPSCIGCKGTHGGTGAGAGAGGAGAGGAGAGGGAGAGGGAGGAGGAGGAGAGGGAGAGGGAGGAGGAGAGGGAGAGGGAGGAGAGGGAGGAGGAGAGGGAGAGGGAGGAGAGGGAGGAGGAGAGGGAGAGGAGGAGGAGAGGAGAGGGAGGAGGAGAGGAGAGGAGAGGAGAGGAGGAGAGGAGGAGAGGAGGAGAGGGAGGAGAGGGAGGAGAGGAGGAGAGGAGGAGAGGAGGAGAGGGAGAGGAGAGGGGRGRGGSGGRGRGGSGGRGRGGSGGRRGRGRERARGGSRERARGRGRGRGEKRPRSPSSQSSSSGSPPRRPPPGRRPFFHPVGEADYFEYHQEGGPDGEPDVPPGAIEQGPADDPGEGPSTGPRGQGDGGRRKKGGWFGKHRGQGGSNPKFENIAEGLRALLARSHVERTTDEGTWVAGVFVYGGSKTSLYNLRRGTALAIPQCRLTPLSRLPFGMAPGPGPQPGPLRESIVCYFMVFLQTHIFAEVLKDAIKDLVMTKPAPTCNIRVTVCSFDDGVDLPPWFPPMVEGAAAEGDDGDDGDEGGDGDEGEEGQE

[17] = target: T4, Lytic switch protein BZLF1 (Epstein-Barr virus (strain B95-8) (HHV-4) (Human herpesvirus 4), UniProt P03206); assay: EBV ZTA inhibitors, dose response, counter-screen for EBNA-1 inhibitor project, biochemical, fluorescence polarization, Epstein-Barr virus, 1536-well (AID 2377); parameters: species or system human gammaherpesvirus 4;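 also: fluorescence polarization of Cy5-labelled ZRE DNA probe bound by purified Zta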
T4 sequence (P03206 whole entry): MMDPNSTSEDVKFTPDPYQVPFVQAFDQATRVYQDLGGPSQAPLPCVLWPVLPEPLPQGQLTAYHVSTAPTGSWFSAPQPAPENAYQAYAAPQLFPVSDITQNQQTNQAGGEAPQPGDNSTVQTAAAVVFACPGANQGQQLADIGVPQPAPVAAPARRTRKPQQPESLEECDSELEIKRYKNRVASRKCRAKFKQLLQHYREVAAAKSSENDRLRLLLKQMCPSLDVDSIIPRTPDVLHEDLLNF

[18] = Luminescence-based counterscreen assay for KLF5 inhibitors: dose response cell-based high throughput screening assay to identify cytotoxic compounds using the IEC-6 intestinal epithelial cell line. [Related pubchem assays: 1700 (Primary screen.), 1834 (Confirmation screen.), 1858 (Summary AID.), 1905 (Counterscreen.)]; assay type: functional
HEK293 = assay: inhibitors of LMP1-driven NF-kB reporter, dose response, cell-based, HEK293, luciferase, cherry-pick (AID 588343); assay type: functional; conditions: Homo sapiens
[19] = target: Voltage-dependent T-type calcium channel subunit alpha-1H (Homo sapiens, UniProt O95180); assay type: functional;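 also: channel activity triggered by adding a high calcium stimulation buffer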
Coagulation factor XII = target: T5, Coagulation factor XII (Homo sapiens, UniProt P00748); assay: FXIIa inhibitor potency, concentration-response, biochemical (AID 716); assay type: functional
T5 sequence (P00748 whole entry): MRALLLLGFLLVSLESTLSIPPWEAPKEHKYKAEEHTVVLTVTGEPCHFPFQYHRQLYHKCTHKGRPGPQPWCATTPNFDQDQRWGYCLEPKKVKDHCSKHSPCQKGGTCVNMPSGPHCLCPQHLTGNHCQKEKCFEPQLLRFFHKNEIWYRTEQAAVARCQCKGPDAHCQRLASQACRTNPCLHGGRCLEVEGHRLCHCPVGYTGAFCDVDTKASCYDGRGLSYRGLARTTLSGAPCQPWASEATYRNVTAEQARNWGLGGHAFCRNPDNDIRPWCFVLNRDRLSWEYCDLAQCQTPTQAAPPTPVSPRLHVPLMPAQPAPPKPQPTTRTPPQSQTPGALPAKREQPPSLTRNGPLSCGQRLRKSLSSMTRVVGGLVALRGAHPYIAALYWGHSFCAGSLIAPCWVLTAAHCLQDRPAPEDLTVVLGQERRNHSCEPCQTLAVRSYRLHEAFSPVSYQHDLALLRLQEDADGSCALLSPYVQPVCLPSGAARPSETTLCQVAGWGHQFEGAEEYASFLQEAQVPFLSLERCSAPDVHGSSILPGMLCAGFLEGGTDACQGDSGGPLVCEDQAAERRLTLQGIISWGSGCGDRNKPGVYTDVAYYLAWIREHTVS

Paired box protein Pax-8 = Paired box protein Pax-8 (Homo sapiens, UniProt Q06710); assay: inhibitors of PAX8-driven TPO luciferase reporter, dose response, RMG-I cells, cherry-pick (AID 687027); assay type: functional, cell-based;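 also: luciferase reporter driven by Pax8 target thyroperoxidase promoter measured by SteadyGlo luminescence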
[20] = P. falciparum Dd2 growth inhibitors, dose response, SYBR Green, cherry-picked samples (AID 1159567); assay type: functional, cell-based
[21] = HepG2 cell cytotoxicity, dose response, cytotoxicity control, cherry-picked samples (AID 1159577); assay type: functional, cell-based
Prothrombin = Prothrombin (Homo sapiens, UniProt P00734); assay: Thrombin 1536 HTS Dose Response Confirmation. [Related pubchem assays: 1046 (Thrombin 1536 HTS; hits were confirmed in this assay)]; assay type: functional

Sequence of Voltage-dependent T-type calcium channel subunit alpha-1H (O95180 whole entry): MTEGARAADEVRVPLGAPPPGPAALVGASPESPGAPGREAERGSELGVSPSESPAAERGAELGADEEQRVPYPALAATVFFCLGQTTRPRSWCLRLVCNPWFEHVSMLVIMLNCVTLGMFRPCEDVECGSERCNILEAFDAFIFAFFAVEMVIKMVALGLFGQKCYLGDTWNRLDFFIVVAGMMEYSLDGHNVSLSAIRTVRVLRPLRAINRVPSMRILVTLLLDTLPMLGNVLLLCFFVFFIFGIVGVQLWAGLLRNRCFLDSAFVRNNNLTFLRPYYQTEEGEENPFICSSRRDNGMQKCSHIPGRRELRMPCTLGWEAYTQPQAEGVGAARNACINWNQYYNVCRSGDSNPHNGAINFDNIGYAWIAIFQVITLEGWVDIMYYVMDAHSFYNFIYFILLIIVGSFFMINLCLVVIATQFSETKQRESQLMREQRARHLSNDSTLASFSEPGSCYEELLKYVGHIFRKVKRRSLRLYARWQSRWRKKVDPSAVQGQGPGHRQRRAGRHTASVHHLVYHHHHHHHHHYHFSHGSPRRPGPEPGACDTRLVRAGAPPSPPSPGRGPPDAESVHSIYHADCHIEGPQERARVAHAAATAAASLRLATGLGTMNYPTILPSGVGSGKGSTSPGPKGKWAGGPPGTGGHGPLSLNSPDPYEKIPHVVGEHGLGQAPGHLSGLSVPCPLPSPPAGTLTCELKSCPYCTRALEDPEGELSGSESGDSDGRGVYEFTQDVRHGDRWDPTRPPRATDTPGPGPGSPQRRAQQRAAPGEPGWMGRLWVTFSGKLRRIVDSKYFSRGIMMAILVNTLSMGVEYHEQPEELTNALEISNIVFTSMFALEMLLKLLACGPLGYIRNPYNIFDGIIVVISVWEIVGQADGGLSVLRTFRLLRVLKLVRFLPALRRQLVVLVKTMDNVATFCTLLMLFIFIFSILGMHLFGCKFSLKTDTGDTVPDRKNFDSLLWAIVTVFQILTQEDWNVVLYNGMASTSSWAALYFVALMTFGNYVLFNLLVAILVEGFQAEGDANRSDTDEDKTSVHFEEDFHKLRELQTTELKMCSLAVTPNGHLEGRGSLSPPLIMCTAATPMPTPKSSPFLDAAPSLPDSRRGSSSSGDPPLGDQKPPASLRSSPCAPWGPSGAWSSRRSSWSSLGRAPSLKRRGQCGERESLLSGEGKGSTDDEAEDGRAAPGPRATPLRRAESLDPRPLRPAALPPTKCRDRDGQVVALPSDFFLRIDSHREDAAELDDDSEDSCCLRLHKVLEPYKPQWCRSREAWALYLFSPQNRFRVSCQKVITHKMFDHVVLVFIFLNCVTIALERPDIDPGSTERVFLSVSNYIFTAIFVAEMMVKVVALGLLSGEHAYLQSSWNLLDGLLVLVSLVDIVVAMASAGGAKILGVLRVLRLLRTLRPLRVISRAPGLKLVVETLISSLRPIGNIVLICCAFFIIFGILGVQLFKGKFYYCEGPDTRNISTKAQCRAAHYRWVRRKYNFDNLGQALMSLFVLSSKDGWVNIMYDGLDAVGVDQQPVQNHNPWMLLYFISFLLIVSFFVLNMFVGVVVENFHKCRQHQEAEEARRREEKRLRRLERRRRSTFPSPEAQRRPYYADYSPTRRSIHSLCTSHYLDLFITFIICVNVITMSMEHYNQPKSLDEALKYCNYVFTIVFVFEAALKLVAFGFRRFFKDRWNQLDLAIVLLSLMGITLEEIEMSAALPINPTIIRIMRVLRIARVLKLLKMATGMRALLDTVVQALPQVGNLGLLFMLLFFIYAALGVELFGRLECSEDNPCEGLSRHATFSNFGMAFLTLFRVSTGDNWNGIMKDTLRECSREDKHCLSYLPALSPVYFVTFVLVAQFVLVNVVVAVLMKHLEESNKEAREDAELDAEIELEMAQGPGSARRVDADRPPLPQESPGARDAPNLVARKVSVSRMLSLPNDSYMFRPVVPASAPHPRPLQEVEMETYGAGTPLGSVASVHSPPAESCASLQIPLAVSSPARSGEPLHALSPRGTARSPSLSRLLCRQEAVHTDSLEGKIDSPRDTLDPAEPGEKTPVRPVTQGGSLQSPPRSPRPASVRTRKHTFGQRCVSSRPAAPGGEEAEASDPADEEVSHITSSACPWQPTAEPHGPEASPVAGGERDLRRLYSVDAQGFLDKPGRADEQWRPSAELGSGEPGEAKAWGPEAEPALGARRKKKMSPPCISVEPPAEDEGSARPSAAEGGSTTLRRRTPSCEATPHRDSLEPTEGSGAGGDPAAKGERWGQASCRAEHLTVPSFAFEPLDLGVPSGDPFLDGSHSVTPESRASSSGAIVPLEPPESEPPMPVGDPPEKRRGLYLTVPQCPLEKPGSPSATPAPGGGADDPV
Sequence of DNA dC->dU-editing enzyme APOBEC-3A (P31941 whole entry): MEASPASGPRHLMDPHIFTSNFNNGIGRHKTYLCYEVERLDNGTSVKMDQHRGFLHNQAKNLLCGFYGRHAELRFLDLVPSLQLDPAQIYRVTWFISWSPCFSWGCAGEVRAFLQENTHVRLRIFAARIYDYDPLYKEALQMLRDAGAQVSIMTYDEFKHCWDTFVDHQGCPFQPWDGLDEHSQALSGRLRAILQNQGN
Sequence of DNA dC->dU-editing enzyme APOBEC-3G (Q9HC16 whole entry, the tested form may be a part): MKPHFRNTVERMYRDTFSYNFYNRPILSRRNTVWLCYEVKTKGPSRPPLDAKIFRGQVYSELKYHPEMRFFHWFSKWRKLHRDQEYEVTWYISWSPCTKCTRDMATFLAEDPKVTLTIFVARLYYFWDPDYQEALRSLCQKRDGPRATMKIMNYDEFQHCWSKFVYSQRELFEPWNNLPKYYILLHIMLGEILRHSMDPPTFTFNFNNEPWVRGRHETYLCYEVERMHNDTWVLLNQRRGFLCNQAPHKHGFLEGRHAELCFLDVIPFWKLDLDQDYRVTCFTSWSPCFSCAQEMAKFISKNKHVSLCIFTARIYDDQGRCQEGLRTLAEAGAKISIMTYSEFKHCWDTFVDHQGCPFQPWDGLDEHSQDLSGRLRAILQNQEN
Sequence of Photoreceptor-specific nuclear receptor (Q9Y5X4 whole entry): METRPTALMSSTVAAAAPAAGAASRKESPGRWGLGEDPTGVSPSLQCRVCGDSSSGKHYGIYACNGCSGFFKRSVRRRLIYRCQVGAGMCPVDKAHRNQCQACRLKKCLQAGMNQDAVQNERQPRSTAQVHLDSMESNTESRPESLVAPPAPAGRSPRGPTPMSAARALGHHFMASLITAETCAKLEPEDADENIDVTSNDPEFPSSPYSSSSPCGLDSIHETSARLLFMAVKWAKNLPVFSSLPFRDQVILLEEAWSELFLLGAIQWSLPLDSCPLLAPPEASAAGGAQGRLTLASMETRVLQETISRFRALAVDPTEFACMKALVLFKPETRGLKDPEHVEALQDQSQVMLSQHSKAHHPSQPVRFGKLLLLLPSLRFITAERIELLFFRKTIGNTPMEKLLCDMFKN
Sequence of Paired box protein Pax-8 (Q06710 whole entry): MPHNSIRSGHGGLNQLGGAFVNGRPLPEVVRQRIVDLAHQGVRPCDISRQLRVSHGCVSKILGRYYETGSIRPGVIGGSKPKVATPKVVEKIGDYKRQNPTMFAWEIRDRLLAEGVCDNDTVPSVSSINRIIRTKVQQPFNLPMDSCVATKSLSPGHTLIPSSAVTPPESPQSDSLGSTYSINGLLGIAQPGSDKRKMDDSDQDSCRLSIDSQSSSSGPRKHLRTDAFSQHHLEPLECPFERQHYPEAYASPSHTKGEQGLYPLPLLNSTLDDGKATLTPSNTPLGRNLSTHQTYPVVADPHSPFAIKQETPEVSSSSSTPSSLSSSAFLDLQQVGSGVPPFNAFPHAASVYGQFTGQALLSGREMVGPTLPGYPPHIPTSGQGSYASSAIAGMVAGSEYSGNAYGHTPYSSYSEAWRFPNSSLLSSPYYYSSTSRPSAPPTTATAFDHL
Sequence of FAD-linked sulfhydryl oxidase ALR (P55789 whole entry, the tested form may be a part): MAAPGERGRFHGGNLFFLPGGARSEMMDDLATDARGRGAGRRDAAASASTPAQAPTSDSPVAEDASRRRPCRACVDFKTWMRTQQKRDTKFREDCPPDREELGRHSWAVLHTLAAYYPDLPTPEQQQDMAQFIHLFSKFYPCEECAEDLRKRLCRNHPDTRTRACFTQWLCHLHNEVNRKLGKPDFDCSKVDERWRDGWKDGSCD

In the case of `Cc1ccccc1Oc1cc(-n2ncc(Cl)c(Cl)c2=O)ncn1`, the AC50 [1] is reported as 3.94 µM (active), the AC50 (INS1) is reported as 3.02 µM (active) and the IC50 [2] is reported as 0.882 µM (active). For the same compound, the AC50 [3] was 4.25 µM (active), the AC50 [4] was 4.53 µM (active) and the AC50 [5] was 1.65 µM (active). The AC50 [6] was 7.89 µM (active), the AC50 [7] was 9.42 µM (active) and the AC50 [8] was 4.45 µM (active).

In the case of `CC12CCC(C[N+](C)(C)C1)C2(C)C` (centres undefined), the IC50 [9] is reported as 2.69 µM (active), the IC50 [10] is reported as 4.71 µM (active) and the IC50 [11] is reported as 5.62 µM (active).

In the case of `O=C(Nc1ccc(-c2nc3ncccc3o2)cc1)c1ccc(Br)o1`, the IC50 [12] is reported as 3.7 µM (active) and the IC50 [13] is reported as 3.5 µM (active).

With `COc1ccc(-c2cn3c4c(sc3n2)CCCC4)cc1` the AC50 [14] was 0.325 µM (active), the EC50 [15] was > 67.5 µM (inactive) and the EC50 (cells) was > 67.5 µM (inactive).

For `Cc1sc2ncnc(SCC(=O)NNC(=O)COc3cccc4ccccc34)c2c1C`, the IC50 [16] was 2.02 µM (active) and the IC50 [17] was > 111 µM (not active).

With `CCOc1cc(Br)cc(/C=N/NC(=O)c2cccnc2)c1O` the IC50 [18] was 16.8 µM (not active) and the AC50 (HEK293) was 21.5 µM (active).

For `O=C(O)c1cc(-c2ccc3c(c2)OCO3)nc2ccccc12`, the AC50 [3] was 31 µM (active).

For `CCc1ccc(-c2nc(CN3CCC(C(=O)NCc4ccc(F)cc4)CC3)c(C)o2)cc1`, the EC50 [19] was 4.46 µM (active).

In the case of `O=[N+]([O-])c1cccc(/C=N/Nc2nc(NCc3ccccc3)nc(N3CCOCC3)n2)c1`, the IC50 [16] is reported as 3.45 µM (active) and the IC50 [17] is reported as > 111 µM (not active).

For `CCC1=C/C(=C\c2ccc3c(c2)OCO3)C(=O)S1`, the IC50 (Coagulation factor XII) was > 50 µM (inactive).

With `Cn1nnnc1Sc1ncnc2scc(-c3cccc(S(C)(=O)=O)c3)c12` the AC50 (Paired box protein Pax-8) was 2.03 µM (active), the AC50 [3] was 35.3 µM (active) and the AC50 [4] was 14.9 µM (active). The AC50 [5] was 17.6 µM (active), the AC50 [6] was 4.13 µM (active) and the AC50 [7] was 2.82 µM (active). For the same compound, the AC50 [8] was 25.8 µM (active).

For `COc1ccccc1NC(=O)N1CCCCN2[C@@H](CO)[C@H](c3ccc(C#Cc4ccccc4)cc3)[C@@H]2C1`, the AC50 [20] was < 0.3 µM (active) and the AC50 [21] was 9.96 µM (active).

With `Cc1ccsc1C(=O)Nc1nccs1` the IC50 [12] was 27.3 µM (not active) and the IC50 [13] was > 39.9 µM (not active).

In the case of `Cc1cc(=O)oc2c1c(C)nn2-c1nn[nH]n1`, the IC50 [9] is reported as 1.76 µM (active) and the IC50 [10] is reported as 4.36 µM (active).

In the case of `O=C(CSc1nnnn1C1CCCCC1)N1c2ccccc2Sc2ccccc21`, the EC50 [19] is reported as 7.42 µM (active).

With `C=CCNc1ncnc2c1[nH]c1ccc(C)cc12` the IC50 (Coagulation factor XII) was > 50 µM (inactive).

With `CC1=CC(=C(C#N)C#N)C=C(C)N1CCN1CCN(C(=O)Nc2ccc(Cl)c(Cl)c2)CC1` the IC50 [16] was 16.3 µM (not active) and the IC50 [17] was > 111 µM (not active).

With `Cn1cc(C(=O)c2ccc(Cl)cc2Cl)cc1C(=O)NN=C(N)COc1ccc(F)cc1` the IC50 (Prothrombin) was 2.13 µM (active) and the EC50 [19] was 2.48 µM (active).

With `CCCc1nc(-c2cc3cc(C)ccc3[nH]c2=O)no1` the IC50 [9] was 3.04 µM (active), the IC50 [10] was 2.41 µM (active) and the IC50 [11] was 12.8 µM (active).

In the case of `COc1ccccc1/N=C/c1nc(-c2ccccc2)oc1OC(C)=O`, the IC50 (Coagulation factor XII) is reported as 48.8 µM (active).
